# Results taken from PMC3871175 (Nature Communications, 2012).
# Target: ABCA4 (Bos taurus, UniProt F1MWM0)
# Format: biochemical
# ABCA4, sequence (F1MWM0 whole entry): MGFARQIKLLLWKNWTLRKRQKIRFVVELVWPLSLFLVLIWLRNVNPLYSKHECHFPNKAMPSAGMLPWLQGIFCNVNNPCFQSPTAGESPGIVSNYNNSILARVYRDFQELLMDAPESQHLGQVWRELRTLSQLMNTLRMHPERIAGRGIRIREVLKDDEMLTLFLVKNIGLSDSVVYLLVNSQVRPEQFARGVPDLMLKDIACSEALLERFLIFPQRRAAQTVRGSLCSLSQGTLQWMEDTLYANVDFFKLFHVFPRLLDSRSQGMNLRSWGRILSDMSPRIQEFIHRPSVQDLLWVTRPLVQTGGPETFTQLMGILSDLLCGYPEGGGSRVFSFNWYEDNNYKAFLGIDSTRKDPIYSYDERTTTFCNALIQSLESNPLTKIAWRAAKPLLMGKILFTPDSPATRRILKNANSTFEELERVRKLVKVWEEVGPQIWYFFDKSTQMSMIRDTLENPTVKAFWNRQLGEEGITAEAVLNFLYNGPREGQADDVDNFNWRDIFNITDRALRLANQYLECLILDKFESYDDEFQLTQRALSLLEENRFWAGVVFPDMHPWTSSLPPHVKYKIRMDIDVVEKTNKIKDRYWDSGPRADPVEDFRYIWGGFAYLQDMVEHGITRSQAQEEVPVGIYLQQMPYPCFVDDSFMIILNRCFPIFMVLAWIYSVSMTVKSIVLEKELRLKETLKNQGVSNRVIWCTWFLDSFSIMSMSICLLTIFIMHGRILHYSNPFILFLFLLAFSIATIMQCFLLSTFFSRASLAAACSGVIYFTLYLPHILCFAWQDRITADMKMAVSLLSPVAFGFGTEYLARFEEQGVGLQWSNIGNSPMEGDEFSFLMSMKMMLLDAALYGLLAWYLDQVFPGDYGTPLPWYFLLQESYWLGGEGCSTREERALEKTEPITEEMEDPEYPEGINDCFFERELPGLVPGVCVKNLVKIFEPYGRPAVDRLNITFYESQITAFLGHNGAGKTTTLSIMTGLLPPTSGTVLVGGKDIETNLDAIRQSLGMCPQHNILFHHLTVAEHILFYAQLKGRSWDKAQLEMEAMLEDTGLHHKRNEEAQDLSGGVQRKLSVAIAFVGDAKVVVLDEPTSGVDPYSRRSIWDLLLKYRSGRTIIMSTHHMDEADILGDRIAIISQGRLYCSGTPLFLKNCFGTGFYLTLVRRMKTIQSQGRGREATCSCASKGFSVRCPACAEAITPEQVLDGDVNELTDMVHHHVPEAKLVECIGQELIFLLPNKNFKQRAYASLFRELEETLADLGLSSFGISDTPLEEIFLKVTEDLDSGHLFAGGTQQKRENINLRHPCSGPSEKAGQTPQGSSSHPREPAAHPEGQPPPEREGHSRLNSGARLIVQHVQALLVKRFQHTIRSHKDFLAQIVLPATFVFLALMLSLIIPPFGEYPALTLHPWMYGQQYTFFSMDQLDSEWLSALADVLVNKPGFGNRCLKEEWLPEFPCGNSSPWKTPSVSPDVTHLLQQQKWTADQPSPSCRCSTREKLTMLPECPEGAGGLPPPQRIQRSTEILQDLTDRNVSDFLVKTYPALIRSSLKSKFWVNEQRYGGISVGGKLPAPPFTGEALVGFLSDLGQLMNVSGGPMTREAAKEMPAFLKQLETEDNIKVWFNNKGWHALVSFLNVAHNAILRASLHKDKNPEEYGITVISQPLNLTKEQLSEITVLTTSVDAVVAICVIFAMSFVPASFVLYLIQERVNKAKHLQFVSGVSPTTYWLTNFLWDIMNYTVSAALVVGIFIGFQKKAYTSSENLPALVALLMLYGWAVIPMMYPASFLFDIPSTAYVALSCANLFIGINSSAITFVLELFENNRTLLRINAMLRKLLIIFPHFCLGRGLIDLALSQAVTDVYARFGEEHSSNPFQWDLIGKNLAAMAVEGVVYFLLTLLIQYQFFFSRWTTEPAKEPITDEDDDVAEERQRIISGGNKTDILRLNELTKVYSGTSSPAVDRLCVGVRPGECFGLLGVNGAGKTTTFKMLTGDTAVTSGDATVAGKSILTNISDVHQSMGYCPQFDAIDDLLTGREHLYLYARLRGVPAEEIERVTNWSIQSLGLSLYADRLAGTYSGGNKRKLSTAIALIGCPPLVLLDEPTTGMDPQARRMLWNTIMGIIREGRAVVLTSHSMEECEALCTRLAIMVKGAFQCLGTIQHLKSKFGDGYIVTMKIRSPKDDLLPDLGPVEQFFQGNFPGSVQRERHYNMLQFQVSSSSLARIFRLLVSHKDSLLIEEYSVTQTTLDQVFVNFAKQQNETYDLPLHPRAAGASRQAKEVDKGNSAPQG
substance,measurement,value
N-retinyl-PE,IC50,9 µM
